# In patent publication US9610332B2, “Compositions and methods for modulating BRD4 bioactivity” (priority 2012, dated 2017):
# How the values were obtained:
# U20S cells [1] = experiment: Image-based screen: G2/M arrest and mitotic entry (DNA content, pHH3) after irradiation; type: cell-based, human; details: 10 Gy IR, FIGS. 1B, 1D, 1F, 1G
# Procedure: For both shRNA and small molecule screens, human U20S osteosarcoma cells (ATCC HTB-96) were grown in DMEM+Pen/Strep+10% v/v FBS (complete media) at 37° C. in a 5% CO2 atmosphere. All screens were carried out at passage 10-15. Cells were tested for mycoplasma by PCR prior to seeding and infection. U20S cells were seeded with a MicroFill (Biotek) in 384-well black, clear bottom plates (Greiner) at a density of 300 (shRNA) cells/well in 50 IJL of media, and allowed to attach overnight at 37° C. in a 5% CO2 atmosphere.
# For shRNA screens, the media was exchanged the following day to complete media with 8 μg/mL polybrene using a JANUS workstation (PerkinElmer). Virus infection was carried out on an EP3 workstation (PerkinElmer) with 1.5 μL of hightiter retrovirus. […] Plates were centrifuged in a swinging-bucket rotor at 2250 rpm for 30 minutes following infection and returned to the incubator overnight. […]
# Plates were allowed to equilibrate to room temperature for 30 minutes and imaged on a Cellomics ArrayScan VTI automated microscope with a 20× objective. […] Images were segmented and analyzed with CellProfiler cell image analysis software (Carpenter et al., Genome Biology, 2006, 7, R100). […]
# U20S cells [2] = experiment: H2AX phosphorylation / γH2AX foci after IR with Brd4 bromodomain inhibitor; type: cell-based, human
# Procedure: For small molecule testing, cells were plated at 500 cells/well in 384-well plates. The day after plating, small molecules at different concentrations in 100 nL DMSO were pin transferred to cells with a CyBio robot, and cells were propagated for 16 hours.
# All plates were treated with 10 Gy of 667 keV X-rays from a 137Cs source in a Gammacell irradiator (Atomic Energy of Canada, Ltd). A 0 hour control plate was not irradiated. The plates were returned to the incubator and fixed with 4.4% w/v paraformaldehyde in phosphate-buffered saline (PBS) at 1, 6, and 24 hours post irradiation. Plates were stored in PBS at 4° C. prior to staining. Fixed plates were washed 3 times with PBS and blocked with 24 IJL of GSDB (0.15% goat serum, 8.33% goat serum, 120 mM sodium phosphate, 225 mM NaCl) for 30 minutes. […]
# U20S cells were plated on #1 glass coverslips (VWR) and were cultured in DMEM+Pen/Strep+10% v/v FBS (complete media) at 37° C. in a 5% CO2 atmosphere, then exposed to 10 Gy Ionizing radiation from a 137CS source in a Gammacell irradiator (Atomic Energy of Canada, Ltd). fixed in methanol, and processed for immuofluorescence using the antibodies indicated above. […] Quantitative image analysis was accomplished using CellProfiler (www.CellProfiler.org) or ImageJ software (http://rsb.info.nih.gov/nihimageJ).
# [3] = test system: U20S cells overexpressing Brd4 isoform B; experiment: γH2AX foci / DDR signaling suppression in cells overexpressing Brd4 isoform B; type: cell-based, human; details: for sensitivity of suppression of DDR signaling by Brd4 isoform B overexpression to transcription or translation inhibition: a-amanitin 1-16 μM, cycloheximide 35-560 μM
# Procedure: U20S cells were plated on #1 glass coverslips (VWR) and were cultured in DMEM+Pen/Strep+10% v/v FBS (complete media) at 37° C. in a 5% CO2 atmosphere, then exposed to 10 Gy Ionizing radiation from a 137CS source in a Gammacell irradiator (Atomic Energy of Canada, Ltd). fixed in methanol, and processed for immuofluorescence using the antibodies indicated above. Images were captured on a Zeiss Axiophot II microscope with a Hamamatsu CCD camera and processed with OpenLab/Volocity software. Quantitative image analysis was accomplished using CellProfiler (www.CellProfiler.org) or ImageJ software (http://rsb.info.nih.gov/nihimageJ).
# (§1) UCN01 was from Sigma (cat. #U6508) and was used at concentrations of 0.003-10 μM.
# 3×10^6 U20S cells were plated and transiently transfected with pEGFP-C 1, isoform C, isoform B, isoform B, BD1 mutant, Brd4-NUT and truncated Brd4-NUT using Fugene 6 (Roche). These cells were exposed to 10 Gy Ionizing radiation and harvested 24 hrs later, fixed with 4% formaldehyde, extracted with 100% ethanol, processed for flow cytometry using the antibodies listed above. Data were analyzed using FlowJo (www.flowjo.com) software.
# U20S cell lines stably expressing this shRNA or control hairpins (ineffective hairpins directed against human sequences of BAD and PUMA) were created using puromycin selection at 2 ug/mL. STEALTH siRNA against BRD4 and control were purchased from Invitrogen, and used according to manufacturer's instructions.
# CHEK2 mRNA = CHEK2 mRNA expression by RT-PCR; type: cell-based, human; details: short term treatment; FIG. 6B, 6C
# Procedure: as §1
# Brd4 bromodomain 1 = Brd4 bromodomain 1 (Homo sapiens, UniProt O60885); details: as reported previously (Nature 468:1067 (2010)); cited from earlier work
molecule,measurement,setting,value
CN[C@@H]1C[C@H]2O[C@@](C)([C@@H]1OC)n1c3ccccc3c3c4c(c5c6ccccc6n2c5c31)C(=O)N[C@@H]4O [UCN01],G2/M arrest following irradiation / mitotic entry,U20S cells [1],"abrogated the normal G2/M arrest following irradiation, leading to premature mitotic entry"
"Cc1sc2c(c1C)C(c1ccc(Cl)cc1)=NC(CC(=O)OC(C)(C)C)c1nnc(C)n1-2 (single isomer, unassigned; (+)) [(+)JQ1]",H2AX phosphorylation following IR,"U20S cells [2]; compound at 250 nM, 10 Gy IR",enhanced H2AX phosphorylation following IR
same,γH2AX foci formation after irradiation,U20S cells [2]; inhibition with JQ1 or short term Brd4 knockdown,sufficient to increase γH2AX foci formation after irradiation
same,reversal of the ability of Brd4 isoform B to suppress γH2AX foci formation,"[3]; cells overexpressing Brd4 isoform B, compound at 250 nM",reversed
same,CHEK2 mRNA,CHEK2 mRNA,no change in CHEK2 mRNA
same,inhibition of Brd4 bromodomain 1 versus bromodomain 2,Brd4 bromodomain 1,more potent inhibition of Brd4 bromodomain 1 than bromodomain 2
a-amanitin,sensitivity of suppression of DDR signaling by Brd4 isoform B overexpression to transcription or translation inhibition,[3],insensitive
C[C@@H]1C[C@@H]([C@H](O)CC2CC(=O)NC(=O)C2)C(=O)[C@@H](C)C1 [cycloheximide],sensitivity of suppression of DDR signaling by Brd4 isoform B overexpression to transcription or translation inhibition,[3],insensitive
